Assay results: patent US12104180B2, “Enzyme with acyl transfer function and application thereof” (OCEAN UNIVERSITY OF CHINA, priority 2020, dated 2024)
Substitutions are numbered along the chain they refer to. Names may count otherwise.

Tests used:
Staphylococcus aureus = conditions: cited from earlier work
Pyricularia oryzae = conditions: cited from earlier work
Alternaria alternata = conditions: cited from earlier work
[1] = system: B1-F10 murine melanoma cells; conditions: cited from earlier work
[2] = system: mammalian herpes simplex virus; conditions: cited from earlier work
HIV virus = conditions: cited from earlier work
[3] = system: methicillin-resistant Staphylococcus aureus; conditions: cited from earlier work
[4] = system: vancomycin-resistant Enterococci; conditions: cited from earlier work
[5] = system: Burkholderia cepacia varieties; conditions: cited from earlier work
[6] = format: biochemical; conditions: 30° C., 2 h, substrate Macrolactin A

Macrolactin B
inhibition of Staphylococcus aureus (Staphylococcus aureus): inhibit
effect on plant pathogenic fungus Pyricularia oryzae (Pyricularia oryzae): obvious effects
effect on plant pathogenic fungus Alternaria alternata (Alternaria alternata): obvious effects

C[C@@H]1CCC/C=C/C=C/[C@H](O)C[C@@H](O)C/C=C\C=C\[C@@H](O)C/C=C/C=C\C(=O)O1 [Macrolactin A]
inhibition of B1-F10 murine melanoma cells [1]: can inhibit
inhibition of mammalian herpes simplex virus [2]: can inhibit
protection of lymphocytes through inhibiting HIV virus (HIV virus): can protect lymphocytes

Macrolactin T
inhibition of Staphylococcus aureus (Staphylococcus aureus): inhibit
effect on plant pathogenic fungus Pyricularia oryzae (Pyricularia oryzae): obvious effects
effect on plant pathogenic fungus Alternaria alternata (Alternaria alternata): obvious effects

CC1CCCC=CC=CC(O)CC(O)CC=CC=CC(OC(=O)CC(=O)O)CC=CC=CC(=O)O1 (centres unmarked) [7-O-malonyl Macrolactin A]
inhibition of methicillin-resistant Staphylococcus aureus [3]: can sufficiently inhibit
inhibition of vancomycin-resistant Enterococci [4]: can sufficiently inhibit
inhibition of Burkholderia cepacia varieties [5]: can sufficiently inhibit

B1: wild-type BmmI protein: acyltransferase BmmI from marine-derived Bacillus methylotrophicus B-9987, sequence SEQ ID NO:1 (protein)
chain: MKQTISNPAFDMKQINALNGHYQTMIDNGDLQCASYMMSRGGEVFAAESLGEFTGGQKEKQTFQLDTIREIGSLTKVFTAVAVMQLVEKGLLDLKMPVKLILPAFDKPGFGEIKILHLLTHTAGLSFELDIQKAEGIDLTNEEEWINYLVSTPLEYGVDEAWNYSRTGFVILGIIISKVTGVSYEQYVTKHIIEALGLERTYFYVPDTLKEEVCVISEHECVQLEKSHHPYFPNKATSGLYSSLRDIWKLAEMFRNKGRLKDKKLLGRKTVEAMLRNQIKPGLPFYFFGAPREEGGFGLGINLWPAGDHYFMTEGTFSHLGMGWCGMFSDPAEDFTYVFFTPISEFHPHAVLTPLNIVWAGIE
modifications: bmmI acyltransferase protease sequence
acyl donors recognized (side chain length) ([6]; FIG. 7): malonyl-CoA (C3), succinyl-CoA (C4), glutaryl-CoA (C5) and hexanedioyl-CoA (C6)

B2: R166G (protein)
chain: B1 chain with R166G
modifications: mutant protein R166G amino acid sequence
catalytic efficiency towards glutaryl-CoA, hexanedioyl-CoA, acetyl-CoA, and acetyl-CoA ([6]; compared with wild type towards malonyl-CoA): equivalent to that of the wild-type protein towards malonyl-CoA
